Literature values, collected in article PMC9847093 (Protein Science : A Publication of the Protein Society, 2023).

Conditions: for pKa of monomers used to calculate theoretical number of charges per AOS: M and G monomers; for pKa: ref Draget et al., [1994]

Compound | pKa of monomers used to calculate theoretical number of charges per AOS | pKa
O=C(O)[C@@H]1O[C@@H](O)[C@@H](O)[C@@H](O)[C@@H]1O [G, α‐L‐guluronate] | 3.65 | 3.7
O=C(O)[C@H]1O[C@@H](O)[C@@H](O)[C@@H](O)[C@@H]1O [M, β‐D‐mannuronate] | 3.38 | 3.4
